pIC50: −log10 of the molar value.
biological target: human PDE4D catalytic domain (Homo sapiens (Human), UniProt Q08499); assay: PDE4 Assay (TR-FRET, FAM-cAMP cleavage); format: biochemical; settings: Table 16, Examples 277-296; read-out: PDE4 IC50 range
Experimental: The human PDE4D catalytic domain (UniProt no. Q08499 [S380-L740]) was incubated with a mixture of non-labelled cAMP (cyclic adenosine monophosphate) and fluorescein amidite (FAM) conjugated cAMP and titrated test or reference Compound. Following brief incubation the enzymatic reaction was stopped by addition of binding buffer containing nanoparticles with immobilized trivalent metal ions capable of binding 1) AMP phospho groups and 2) terbium (Tb) donor fluorophores. Subsequent excitation of the Tb donor triggers time-resolved FRET to adjacent FAM acceptor molecules resulting in light emission. In the presence of a PDE4 inhibitor, AMP generation was reduced resulting in a lower fluorescence signal. The cAMP phosphodiester is not bound by the detection system.
The results were calculated as the molar concentrations resulting in 50% inhibition of the substrate cleavage compared to controls samples, and are expressed as a range of IC50 (nM).

Sequence of human PDE4D catalytic domain (Q08499 380-740): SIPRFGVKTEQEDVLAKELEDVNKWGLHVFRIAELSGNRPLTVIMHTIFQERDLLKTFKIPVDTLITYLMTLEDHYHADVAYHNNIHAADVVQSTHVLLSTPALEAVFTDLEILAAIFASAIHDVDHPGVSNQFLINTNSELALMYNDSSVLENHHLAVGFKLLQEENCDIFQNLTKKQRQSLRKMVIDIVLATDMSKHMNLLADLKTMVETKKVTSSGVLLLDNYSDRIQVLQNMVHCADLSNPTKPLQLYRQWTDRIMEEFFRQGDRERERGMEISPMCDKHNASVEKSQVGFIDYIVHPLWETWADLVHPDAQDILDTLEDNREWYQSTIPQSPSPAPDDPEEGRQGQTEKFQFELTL

Compound	pIC50
CCn1nc(C[C@@H](C)COC(=O)c2csc(C)n2)c2c1C(=O)NCC1(CCOCC1)C2 [Example 290, [(2R)-3-(1-ethyl-8-oxo-spiro[6,7-dihydro-4H-pyrazolo[3,4-c]azepine-5,4′-tetrahydropyran]-3-yl)-2-methyl-propyl] 2-methylthiazole-4-carboxylate]	> 7.00

same assay, conditions: Table 17, Examples 297-316; read-out: PDE4 IC50 range

Compound	pIC50
CCn1nc(CC(C)(C)COC(=O)c2coc(C)n2)c2c1C(=O)NCC1(CCOCC1)C2 [Example 301, [3-(1-ethyl-8-oxo-spiro[6,7-dihydro-4H-pyrazolo[3,4-c]azepine-5,4′-tetrahydropyran]-3-yl)-2,2-dimethyl-propyl] 2-methyloxazole-4-carboxylate]	> 7.00
CCn1nc(CC(C)(C)COC(=O)c2cocn2)c2c1C(=O)NCC1(CCOCC1)C2 [Example 297, [3-(1-ethyl-8-oxo-spiro[6,7-dihydro-4H-pyrazolo[3,4-c]azepine-5,4′-tetrahydro-pyran]-3-yl)-2,2-dimethyl-propyl] oxazole-4-carboxylate]	> 7.00

same assay, conditions: human PDE4D catalytic domain (UniProt Q08499 [S380-L740]); 50% inhibition of substrate cleavage; read-out: PDE4 IC50 range

Compound	pIC50
CCn1nc(CCCOC(=O)c2ccc(Cl)c(OC)c2)c2c1C(=O)NCC1(CCOCC1)C2 [Example 55, 3-(1-ethyl-8-oxo-spiro[6,7-dihydro-4H-pyrazolo[3,4-c]azepine-5,4′-tetrahydropyran]-3-yl)propyl 4-chloro-3-methoxy-benzoate]	> 7.00
CCn1nc(CCCOC(=O)c2cccc(OC)c2)c2c1C(=O)NCC1(CCOCC1)C2 [Example 17, 3-(1-ethyl-8-oxo-spiro[6,7-dihydro-4H-pyrazolo[3,4-c]azepine-5,4′-tetrahydropyran]-3-yl)propyl 3-methoxybenzoate]	> 7.00
CCn1nc(CCCOC(=O)c2cc(C#N)ccc2F)c2c1C(=O)NCC1(CCOCC1)C2 [Example 31, 3-(1-ethyl-8-oxo-spiro[6,7-dihydro-4H-pyrazolo[3,4-c]azepine-5,4′-tetrahydropyran]-3-yl)propyl 5-cyano-2-fluoro-benzoate]	> 7.00
CCn1nc(C[C@@H](C)COC(=O)CCOC)c2c1C(=O)NCC1(CCOCC1)C2 [Example 137, [(2R)-3-(1-ethyl-8-oxo-spiro[6,7-dihydro-4H-pyrazolo[3,4-c]azepine-5,4′-tetrahydropyran]-3-yl)-2-methyl-propyl] 3-methoxypropanoate]	> 7.00
CCn1nc(C[C@@H](C)COC(=O)CCS(C)(=O)=O)c2c1C(=O)NCC1(CCOCC1)C2 [Example 152, [(2R)-3-(1-ethyl-8-oxo-spiro[6,7-dihydro-4H-pyrazolo[3,4-c]azepine-5,4′-tetrahydropyran]-3-yl)-2-methyl-propyl] 3-methylsulfonylpropanoate]	> 7.00
CCn1nc(CCCCOC(=O)c2cnc(C)o2)c2c1C(=O)NCC1(CCOCC1)C2 [Example 267, 4-(1-ethyl-8-oxo-spiro[6,7-dihydro-4H-pyrazolo[3,4-c]azepine-5,4′-tetrahydropyran]-3-yl)butyl 2-methyloxazole-5-carboxylate]	> 7.00
CCn1nc(CCCOC(=O)c2c(F)cccc2F)c2c1C(=O)NCC1(CCOCC1)C2 [Example 26, 3-(1-ethyl-8-oxo-spiro[6,7-dihydro-4H-pyrazolo[3,4-c]azepine-5,4′-tetrahydropyran]-3-yl)propyl 2,6-difluorobenzoate]	> 7.00
CCn1nc(CCCOC(=O)c2cc(Cl)cc(C(F)(F)F)c2)c2c1C(=O)NCC1(CCOCC1)C2 [Example 90, 3-(1-ethyl-8-oxo-spiro[6,7-dihydro-4H-pyrazolo[3,4-c]azepine-5,4′-tetrahydro-pyran]-3-yl)propyl 3-chloro-5-(trifluoromethyl)benzoate]	> 7.00
CCn1nc(CCCOC(=O)c2cccc(S(=O)(=O)CC)c2)c2c1C(=O)NCC1(CCOCC1)C2 [Example 76, 3-(1-ethyl-8-oxo-spiro[6,7-dihydro-4H-pyrazolo[3,4-c]azepine-5,4′-tetrahydro-pyran]-3-yl)propyl 3-ethylsulfonylbenzoate]	> 7.00
CCn1nc(CC(C)(C)COC(=O)c2ccc(C(=O)N3CCCCC3)cc2)c2c1C(=O)NCC1(CCOCC1)C2 [Example 222, [3-(1-ethyl-8-oxo-spiro[6,7-dihydro-4H-pyrazolo[3,4-c]azepine-5,4′-tetrahydro-pyran]-3-yl)-2,2-dimethyl-propyl] 4-(piperidine-1-carbonyl)benzoate]	> 7.00
CCn1nc(CCCCOC(=O)C2CCN(C(C)=O)CC2)c2c1C(=O)NCC1(CCOCC1)C2 [Example 274, 4-(1-ethyl-8-oxo-spiro[6,7-dihydro-4H-pyrazolo[3,4-c]azepine-5,4′-tetrahydropyran]-3-yl)butyl 1-acetylpiperidine-4-carboxylate]	> 7.00
CCn1nc(C[C@@H](C)COC(=O)c2cccc(S(=O)(=O)N3CCOCC3)c2)c2c1C(=O)NCC1(CCOCC1)C2 [Example 164, [(2R)-3-(1-ethyl-8-oxo-spiro[6,7-dihydro-4H-pyrazolo[3,4-c]azepine-5,4′-tetrahydropyran]-3-yl)-2-methyl-propyl] 3-morpholinosulfonylbenzoate]	> 7.00
CCn1nc(C[C@@H](C)COC(=O)c2ccc(C(N)=O)cc2)c2c1C(=O)NCC1(CCOCC1)C2 [Example 169, [(2R)-3-(1-ethyl-8-oxo-spiro[6,7-dihydro-4H-pyrazolo[3,4-c]azepine-5,4′-tetrahydropyran]-3-yl)-2-methyl-propyl] 4-carbamoylbenzoate]	> 7.00
CCn1nc(CCCOC(=O)c2cc(C)n(C)n2)c2c1C(=O)NCC1(CCOCC1)C2 [Example 249, 3-(1-ethyl-8-oxo-spiro[6,7-dihydro-4H-pyrazolo[3,4-c]azepine-5,4′-tetrahydro-pyran]-3-yl)propyl 1,5-dimethylpyrazole-3-carboxylate]	> 7.00
CCn1nc(CCCOC(=O)c2cc(F)ccc2C)c2c1C(=O)NCC1(CCOCC1)C2 [Example 20, 3-(1-ethyl-8-oxo-spiro[6,7-dihydro-4H-pyrazolo[3,4-c]azepine-5,4′-tetrahydropyran]-3-yl)propyl 5-fluoro-2-methyl-benzoate]	> 7.00
CCn1nc(CCCOC(=O)c2ccc(C(C)=O)cc2)c2c1C(=O)NCC1(CCOCC1)C2 [Example 27, 3-(1-ethyl-8-oxo-spiro[6,7-dihydro-4H-pyrazolo[3,4-c]azepine-5,4′-tetrahydropyran]-3-yl)propyl 4-acetylbenzoate]	> 7.00
CCn1nc(CCCOC(=O)c2ccc(F)c(Cl)c2)c2c1C(=O)NCC1(CCOCC1)C2 [Example 54, 3-(1-ethyl-8-oxo-spiro[6,7-dihydro-4H-pyrazolo[3,4-c]azepine-5,4′-tetrahydropyran]-3-yl)propyl 3-chloro-4-fluoro-benzoate]	> 7.00
CCn1nc(CCCOC(=O)C2CCOCC2)c2c1C(=O)NCC1(CCOCC1)C2 [Example 246, 3-(1-ethyl-8-oxo-spiro[6,7-dihydro-4H-pyrazolo[3,4-c]azepine-5,4′-tetrahydropyran]-3-yl)propyl tetrahydropyran-4-carboxylate]	> 7.00
CCn1nc(C[C@@H](C)COC(=O)c2ccccc2F)c2c1C(=O)NCC1(CCOCC1)C2 [Example 144, [(2R)-3-(1-ethyl-8-oxo-spiro[6,7-dihydro-4H-pyrazolo[3,4-c]azepine-5,4′-tetrahydropyran]-3-yl)-2-methyl-propyl] 2-fluorobenzoate]	> 7.00
CCn1nc(CC(C)(C)COC(=O)c2ccc(S(=O)(=O)CC)cc2)c2c1C(=O)NCC1(CCOCC1)C2 [Example 203, [3-(1-ethyl-8-oxo-spiro[6,7-dihydro-4H-pyrazolo[3,4-c]azepine-5,4′-tetrahydropyran]-3-yl)-2,2-dimethyl-propyl] 4-ethylsulfonylbenzoate]	> 7.00
CCn1nc(CC(C)(C)COC(=O)c2cccc(S(=O)(=O)N3CCCC3)c2)c2c1C(=O)NCC1(CCOCC1)C2 [Example 210, [3-(1-ethyl-8-oxo-spiro[6,7-dihydro-4H-pyrazolo[3,4-c]azepine-5,4′-tetrahydropyran]-3-yl)-2,2-dimethyl-propyl] 3-pyrrolidin-1-ylsulfonylbenzoate]	> 7.00
CCn1nc(CC(C)(C)COC(=O)c2cccc(C(=O)N(C)C)c2)c2c1C(=O)NCC1(CCOCC1)C2 [Example 229, [3-(1-ethyl-8-oxo-spiro[6,7-dihydro-4H-pyrazolo[3,4-c]azepine-5,4′-tetrahydro-pyran]-3-yl)-2,2-dimethyl-propyl] 3-(dimethyl-carbamoyl)benzoate]	> 7.00
CCn1nc(CCCOC(=O)c2ccc(C(=O)N3CCN(C)CC3)cc2)c2c1C(=O)NCC1(CCOCC1)C2 [Example 110, 3-(1-ethyl-8-oxo-spiro[6,7-dihydro-4H-pyrazolo[3,4-c]azepine-5,4′-tetrahydropyran]-3-yl)propyl 4-(4-methylpiperazine-1-carbonyl)benzoate]	> 7.00
CCn1nc(C[C@@H](C)COC(=O)c2ccc(S(=O)(=O)N(C)C)cc2)c2c1C(=O)NCC1(CCOCC1)C2 [Example 161, [(2R)-3-(1-ethyl-8-oxo-spiro[6,7-dihydro-4H-pyrazolo[3,4-c]azepine-5,4′-tetrahydropyran]-3-yl)-2-methyl-propyl] 4-(di-methylsulfamoyl)benzoate]	> 7.00
CCn1nc(C[C@@H](C)COC(=O)c2ccc(C(=O)N(C)C)cc2)c2c1C(=O)NCC1(CCOCC1)C2 [Example 171, [(2R)-3-(1-ethyl-8-oxo-spiro[6,7-dihydro-4H-pyrazolo[3,4-c]azepine-5,4′-tetrahydropyran]-3-yl)-2-methyl-propyl] 4-(di-methylcarbamoyl)benzoate]	> 7.00

— patent publication US10793580B2, “Substituted pyrazoloazepin-8-ones and their use as phosphodiesterase inhibitors” (LEO Pharma A/S, priority 2016, dated 2020)
